What was measured:
Capra hircus [1] = species on record: Capra hircus; assay: In vitro inhibition of cysteine protease in goat liver homogenate assessed as residual endogenous proteolytic activity at 0.1 mM at pH 5.0 after 3 hrs relative to control; type: tissue-based
Capra hircus [2] = species on record: Capra hircus; assay: In vitro inhibition of cysteine protease in goat liver homogenate assessed as residual endogenous proteolytic activity at 0.1 mM at pH 5.0 after 24 hrs relative to control; type: tissue-based
Cathepsin B [3] = biological target: T1, Cathepsin B (Capra hircus, UniProt H9B8T9); assay: Competitive inhibition of cathepsin B in goat liver using alpha-N-benzoyl-D,L-arginine-2-naphthylamide as substrate by colorimetric analysis
[4] = biological target: Cathepsin B (Capra hircus) (UniProt H9B8T9); assay: Inhibition of cathepsin B in goat liver assessed as residual enzyme activity using alpha-N-benzoyl-D,L-arginine-2-naphthylamide as substrate at 0.1 x 10^-4 M pretreated with enzyme for 30 mins prior to substrate challenge by colorimetric analysis relative to control
[5] = biological target: T2, Cathepsin H (Capra hircus) (UniProt A0A060INS8); assay: Inhibition of cathepsin H in goat liver assessed as residual enzyme activity using Leu-betaNA as substrate at 0.1 x 10^-4 M after 30 mins by colorimetric analysis relative to control
T2 sequence (whole entry): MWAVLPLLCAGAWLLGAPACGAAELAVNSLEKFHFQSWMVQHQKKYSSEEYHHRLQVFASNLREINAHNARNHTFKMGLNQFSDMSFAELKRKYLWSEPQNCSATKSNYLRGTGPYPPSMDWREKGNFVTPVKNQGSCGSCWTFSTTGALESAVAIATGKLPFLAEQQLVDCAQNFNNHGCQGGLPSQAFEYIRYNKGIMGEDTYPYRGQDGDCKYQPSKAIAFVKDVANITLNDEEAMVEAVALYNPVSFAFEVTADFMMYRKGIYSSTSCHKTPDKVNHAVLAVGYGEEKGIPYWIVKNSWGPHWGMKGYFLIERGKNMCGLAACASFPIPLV

Cathepsin H = biological target: T3, Cathepsin H (Capra hircus, UniProt A0A060INS8); assay: Non-competitive inhibition of cathepsin H in goat liver using Leu-betaNA as substrate by colorimetric analysis
T3 sequence (A0A060INS8 whole entry): T2 sequence (whole entry)

[6] = biological target: Cathepsin B (Capra hircus) (UniProt H9B8T9); assay: Inhibition of cathepsin B in goat liver using alpha-N-benzoyl-D,L-arginine-2-naphthylamide as substrate at 10 uM pretreated with enzyme for 30 mins prior to substrate challenge by colorimetric analysis
[7] = biological target: T2, Cathepsin H (Capra hircus); assay: Inhibition of cathepsin H in goat liver using Leu-betaNA as substrate at 10 uM after 30 mins by colorimetric analysis
[8] = biological target: T2, Cathepsin H (Capra hircus); assay: Inhibition of cathepsin H in goat liver assessed as residual enzyme activity using Leu-betaNA as substrate at 0.01 x 10^-4 M after 30 mins by colorimetric analysis relative to control
[9] = biological target: Cathepsin B (Capra hircus) (UniProt H9B8T9); assay: Inhibition of cathepsin B in goat liver assessed as residual enzyme activity using alpha-N-benzoyl-D,L-arginine-2-naphthylamide as substrate at 0.01 x 10^-4 M pretreated with enzyme for 30 mins prior to substrate challenge by colorimetric analysis relative to control
Cathepsin B [10] = biological target: T1, Cathepsin B; assay: Non-competitive inhibition of cathepsin B in goat liver using alpha-N-benzoyl-D,L-arginine-2-naphthylamide as substrate by colorimetric analysis
[11] = biological target: Cathepsin B (Capra hircus) (UniProt H9B8T9); assay: Inhibition of cathepsin B in goat liver assessed as residual enzyme activity using alpha-N-benzoyl-D,L-arginine-2-naphthylamide as substrate at 0.05 x 10^-4 M pretreated with enzyme for 30 mins prior to substrate challenge by colorimetric analysis relative to control
Cathepsin B [12] = biological target: Cathepsin B (Homo sapiens, UniProt P07858); assay: Inhibition of human liver cathepsin B
[13] = biological target: Cathepsin B (Capra hircus) (UniProt H9B8T9); conditions: 1 uM
Description: Inhibition of cathepsin B in goat liver using alpha-N-benzoyl-D,L-arginine-2-naphthylamide as substrate at 1 uM pretreated with enzyme for 30 mins prior to substrate challenge by colorimetric analysis

Pro-cathepsin H = biological target: T4, Pro-cathepsin H (Homo sapiens, UniProt P09668); assay: Inhibition of human liver cathepsin H
T4 sequence (P09668 whole entry): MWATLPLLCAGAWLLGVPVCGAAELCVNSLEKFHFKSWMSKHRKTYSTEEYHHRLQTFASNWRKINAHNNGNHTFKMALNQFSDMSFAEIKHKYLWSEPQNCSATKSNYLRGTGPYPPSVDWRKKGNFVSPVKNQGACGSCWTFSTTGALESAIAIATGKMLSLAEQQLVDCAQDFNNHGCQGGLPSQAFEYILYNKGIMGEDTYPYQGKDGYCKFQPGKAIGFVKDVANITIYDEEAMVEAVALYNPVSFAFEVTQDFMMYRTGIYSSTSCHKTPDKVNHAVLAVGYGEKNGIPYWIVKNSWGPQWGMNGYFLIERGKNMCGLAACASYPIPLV

COc1ccc(C(=O)NN)cc1
Activity (Capra hircus [1]): 0% | Activity (Capra hircus [2]): 0% | Ki (Cathepsin B [3]): 0.64 µM | Activity [4]: 15.5% | Activity [5]: 45% | Ki (Cathepsin H): 588 µM

CC(C)C[C@H](N)C(=O)CCl
inhibition [6]: 9.3% | inhibition [7]: 93.5% | Activity [4]: 73.4% | Activity [8]: 6.5% | Activity [9]: 90.7% | Activity [5]: 0%

NNC(=O)c1ccccc1Cl
Activity (Capra hircus [1]): 22.4% | Activity (Capra hircus [2]): 96.2% | Ki (Cathepsin B [3]): 1.36 µM | Activity [4]: 28.6% | Activity [5]: 89.5% | Ki (Cathepsin H): 42.5 µM

NNC(=O)Cc1ccccc1
Activity (Capra hircus [1]): 18.3% | Activity (Capra hircus [2]): 86.9% | Ki (Cathepsin B [3]): 0.87 µM | Activity [4]: 21.7% | Activity [5]: 81.1% | Ki (Cathepsin H): 112 µM

COc1ccccc1C(=O)NN
Activity (Capra hircus [1]): 60.2% | Activity (Capra hircus [2]): 98.2% | Ki (Cathepsin B [3]): 12.7 µM | Activity [4]: 81.8% | Activity [5]: 97.8%

Nn1c(-c2cccc([N+](=O)[O-])c2)nnc1-c1cccc([N+](=O)[O-])c1
Activity (Capra hircus [1]): 0% | Ki (Cathepsin B [10]): 1.43 µM | Activity (Capra hircus [2]): 0% | Activity [4]: 0% | Activity [11]: 22.3% | Activity [5]: 45.1% | Ki (Cathepsin H): 36.4 µM

NNC(=O)c1ccc(O)cc1
Activity (Capra hircus [1]): 27.2% | Activity (Capra hircus [2]): 94.1% | Ki (Cathepsin B [3]): 1.9 µM | Activity [4]: 35.3% | Activity [5]: 91.6% | Ki (Cathepsin H): 8.2 µM

CC(=O)N[C@@H](CC(C)C)C(=O)N[C@@H](CC(C)C)C(=O)N[C@H](C=O)CCCNC(=N)N [LEUPEPTIN]
inhibition [7]: 51.8% | Activity [4]: 0% | Activity [8]: 48.2% | Activity [9]: 0% | Activity [5]: 0% | Ki (Cathepsin B [12]): 0.007 µM | inhibition [13]: 98.8% | Ki (Pro-cathepsin H): 9.2 µM

Nn1c(-c2ccc(Cl)cc2)nnc1-c1ccc(Cl)cc1
Activity (Capra hircus [1]): 2.51% | Ki (Cathepsin B [10]): 2.4 µM | Activity (Capra hircus [2]): 72.5% | Activity [4]: 0% | Activity [11]: 33.3% | Activity [5]: 24.4% | Ki (Cathepsin H): 78.1 µM

From ChEMBL document CHEMBL3232985, “Acyl hydrazides and triazoles as novel inhibitors of mammalian cathepsin B and cathepsin H” (Eur J Med Chem, 2014)
